The subject of this experiment is NOD blastocysts (ICM explants). The experiment in a line: NOD ES cell derivation from blastocysts in the presence of small molecules. The experiment is classed as cell-based, mouse (NOD/LtJ). The conditions noted are these: NOD/LtJ blastocysts, mESM with the inhibitors. The text has this: NOD/ShiLtJ were obtained from the Jackson laboratory and bred in specific-pathogen-free animal facility. Control MEFs were made from 129SvJae mice. Non-NOD ES lines derived used in this study as controls were derived from matings between 129SvJae or B6D2F1 mice. To derive ES lines, ICM explants were derived from day 3.5 blastocysts following procedures previously described (Markoulaki et al., 2008). Where applicable, ES derivation medium was also supplemented with the indicated compounds (Table S2). Dissociation of the outgrowths by treatment with Trypsin was performed on day 5 after plating and the cells were further cultured in mESC derivation medium until colonies appeared (typically after 5-7 days). From then on, established ES lines were cultured in mESM condition supplemented with the indicated compounds. NOD […] ES lines were derived by similarly plating blastocysts in EpiSC-derivation medium (For 100 ml, we added 15 ml FBS (Hyclone), 5 ml KSR, 5 μl Lif (1×107 U ESGRO/ml; Chemicon), 100 μl Mek1 inhibitor (PD98059; Cell Signaling Technology), hFGF2 ([…]), 1 ml non-essential amino acids, 1 ml glutamine solution, and 1 ml pen/strep solution into DMEM/F12). ICM outgrowths were manually passaged after 5-7 days and were stably maintained in […] conditions. […]

Take `O=C1Cc2c([nH]c3ccc(Br)cc23)-c2ccccc2N1` [Kenpaullone, 9-bromo-7,12-dihydroindolo[3,2-d][1]benzazepin-6(5H)-one]: the “# of ES lines derived” value came out at 2 and the “ES derivation (% efficiency)” value was “(13%)”.

The values are drawn from patent US20110088107A1, “COMPOSITIONS AND METHODS FOR DERIVING OR CULTURING PLURIPOTENT CELLS” (priority 2009, published 2011).
